Values of other authors, collected in patent US11529445B2, “Methods and apparatus for kidney dialysis and extracorporeal detoxification” (HIBAR Microsciences LLC, priority 2013, dated 2022).

System: Connexin-43
Settings: cell culture models; concentrations commonly found among ESRD patients

SMILES: Cc1ccc(O)cc1 [p-cresol]
- degradation of Connexin-43 within cardiac gap junctions: dose-dependent degradation of Connexin-43
